Laboratory results reported in US20050227941A1, “Sequestration of ass in the periphery in the absence of immunomodulating agent as a therapeutic approach for the treatment or prevention of beta-amyloid related diseases” (priority 2001, published 2005).

Columns and labels:
Assay type in all cases: in vivo
[1] = biological target: T1, Aβ40 (Homo sapiens, UniProt P05067); assay: Brain Aβ40 (70% formic acid extract, ELISA) after one week of daily CG injection in PS/APP mice; conditions: 20 mg/kg ip every day for one week, sacrificed at 12 weeks, vehicle 926 ± 26
T1 construct: from tissue; host or cells: brain (70% formic acid extract) and plasma of PS/APP transgenic mice
Procedure: (§1) Following a oneweek wash out period, the effect in brain AD level after continuous injection was examined. PS/APP mice were injected every day for one week into the periphery, with either CG (number of mice=3) (20 mg/kg, ip,) or vehicle (phosphate buffered saline) (number of mice=2), at 11 weeks of age, an age when amyloid pathology in the brain is not visible. The mice were sacrificed at 12 weeks of age, an age when amyloid deposition has been initiated and measurable levels of Aβ are present in the vehicle treated controls.
(§2) The levels of Aβ in the peripheral blood were tested at the end of the administration period. The levels of Aβ peptides (e.g., Aβ40 or Aβ42) in the brain and plasma were assessed by ELISA assay. All of the Aβ in the brain (including Aβ in plaques) was extracted in 70% formic acid (FA). The levels of Aβ peptides in CG treated mice were compared with those of vehicle treated controls. […] This correlates with a statistically significant increase in peripheral Aβ40 and Aβ42 at the same time point.

[2] = biological target: T2, Aβ42 (Homo sapiens, UniProt P05067); assay: Brain Aβ42 (70% formic acid extract, ELISA) after one week of daily CG injection in PS/APP mice; conditions: 20 mg/kg ip every day for one week, sacrificed at 12 weeks, vehicle 1209 ± 292, not statistically significant
T2 construct: from tissue; host or cells: brain (70% formic acid extract) and plasma of PS/APP transgenic mice
Procedure: as §1, §2

[3] = biological target: T2, Aβ42; assay: Plasma Aβ42 level after one week of daily CG injection in PS/APP mice (ELISA); conditions: 20 mg/kg ip every day for one week from 11 weeks of age, vehicle = 100 ± 9
Procedure: as §1, §2

[4] = biological target: T2, Aβ42; assay: Plasma Aβ42 level over time after a single injection of CG in PS/APP mice (ELISA); conditions: single injection 20 mg/kg
From the text: In this Example, as in Example 1, transgenic mice that develop AD-related amyloidosis, (i.e., PS/APP mice; See, L. Holcomb et al., 1998, Nature Med., 4(1):97-100) were used to assess the Aβ-binding compound chrysamine G (CG) in the peripheral sequestration of Aβ according to this invention, and to determine how the peripheral sequestration of Aβ by this compound affected brain Aβ levels. CG is known to bind Aβ strongly, and is less brain permeable than GM1.
PS/APP mice at 10 weeks of age were injected once either with CG (number of mice=3, dosage: 20 mg/kg) or vehicle (phosphate buffered saline, number of mice=2) into the blood stream. […] […] The levels of Aβ peptides (Aβ40 or Aβ42) in the plasma were assessed by ELISA immunoassay. The levels of Aβ peptides in the periphery, i.e., plasma, of CG treated mice were compared with plasma Aβ levels in pretreatment mice at various time points.
Changes in plasma load of Aβ42 after injection with CG were compared to the plasma Aβ level at pretreatment time points. As can be observed, there was a significant increase in plasma Aβ levels after injection of CG.

[5] = biological target: T2, Aβ42; assay: Plasma Abeta42 load (ELISA) in PS/APP mice after peripheral GM1 or gelsolin; conditions: ip every two days for two weeks, third time point (after wash-out), vehicle = 100 ± 7
Procedure: (§3) Transgenic mice that develop AD-related amyloidosis, (i.e., PS/APP mice; See, L. Holcomb et al., 1998, Nature Med., 4(1):97-100) were used for the studies described in this Example to assess how peripheral sequestration of Aβ affected brain Aβ levels. […] In addition, a second compound, gelsolin, which is too large to cross the blood/brain barrier (BBB), and is completely unrelated to GM1, but which is also known to bind Aβ with great avidity, was administered peripherally to confirm the universality of the mechanism.
(§4) PS/APP mice were injected every two days for two weeks either with GM1 (number of mice=6) (15 mg/kg, ip,), with gelsolin (number of mice=3) (60 μg/kg, ip), or with vehicle, (phosphate buffered saline), (number=7), into the periphery at 9 weeks of age, an age when amyloid pathology in the brain is not visible. The mice were left for 1 week without injections (the “wash-out” period) and were then sacrificed at 12 weeks of age, an age when amyloid deposition has been initiated and measurable levels of Aβ are present in the vehicle treated controls.
(§5) The levels of Aβ in the peripheral blood were tested at three time points during the drug administration period (i.e., after 1 week of injections; after two weeks of injections; and after the washout period). […] The levels of Aβ peptides (Aβ40 or Aβ42) in the brain and plasma were assessed by ELISA assay. […]

[6] = biological target: T1, Aβ40; assay: Plasma Abeta40 load (ELISA) in PS/APP mice after peripheral GM1 or gelsolin; conditions: ip every two days for two weeks, third time point (after wash-out), vehicle = 100 ± 21
Procedure: as §3, §4, §5

[7] = biological target: T1, Aβ40; assay: Brain Abeta40 load (70% formic acid extract, ELISA) in PS/APP mice after peripheral GM1 or gelsolin; conditions: 1 week wash-out; for brain Abeta load, Abeta40: ip every two days for two weeks from 9 weeks of age, sacrificed at 12 weeks, FA-soluble brain fraction; for brain Abeta40 load compared with controls (vehicle): ip every two days for two weeks, % of vehicle
Procedure: as §3, §4
(§6) The levels of Aβ in the peripheral blood were tested at three time points during the drug administration period (i.e., after 1 week of injections; after two weeks of injections; and after the washout period). Data for the third time point only are shown. The levels of Aβ peptides (Aβ40 or Aβ42) in the brain and plasma were assessed by ELISA assay. All of the Aβ in the brain (including Aβ in plaques) was extracted in 70% formic acid (FA). The levels of Aβ peptides in GM1 or gelsolin treated mice were compared with those of vehicle treated controls.
(§7) This correlates with a statistically significant increase in peripheral Aβ40 and Aβ42 at the same time point. For gelsolin, there was also a significant decrease in Aβ42, which correlated with a statistically significant increase in peripheral Aβ, thus confirming that the general principle of Aβ sequestration in the periphery being linked to reduction of Aβ in the CNS holds true for very different types of compounds that have the unifying property of being able to bind Aβ in the blood.

[8] = system: Aβ; assay: GM1 introduced directly into the brain of transgenic mice, Aβ levels
From the text: Neither GM1 nor gelsolin is known to cross into the brain from the periphery to any degree. […] This is the first time that such a result has been shown for a peripherally administered compound that is not an antibody. As such, the invention affords a significant advantage to the art by describing and promoting Aβ-binding compounds that require neither penetration of the brain nor the evocation of an immune response, which are potentially harmful and ineffective ways to modulate the risk of AD in human patients.

[9] = biological target: T2, Aβ42; assay: Brain Abeta42 load (70% formic acid extract, ELISA) in PS/APP mice after peripheral GM1 or gelsolin; conditions: 1 week wash-out; for brain Abeta load, Abeta42: ip every two days for two weeks from 9 weeks of age, sacrificed at 12 weeks, FA-soluble brain fraction; for brain Abeta42 load compared with controls (vehicle): ip every two days for two weeks, % of vehicle
Procedure: as §3, §4, §6, §7

T2 sequence (P05067 672-713 limits assumed): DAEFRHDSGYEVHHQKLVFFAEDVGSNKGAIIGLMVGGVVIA
T1 sequence (P05067 672-711 limits assumed): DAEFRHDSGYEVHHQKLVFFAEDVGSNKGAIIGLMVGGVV
Chain of Aβ (P05067 672-711 limits assumed): as above

`O=C([O-])c1cc(N=Nc2ccc(-c3ccc(N=Nc4ccc(O)c(C(=O)[O-])c4)cc3)cc2)ccc1O.[Na+].[Na+]` [CG, 5,5′-[(1,1′ biphenyl)-4,4′-diylbis(azo)]bis [2-hydroxybenzoic acid]disodium salt] was tested, and the “brain Aβ40” value [1] was 541 ± 50 fmol/mL, the “brain Aβ42” value [2] was 540 ± 271 fmol/mL and the “plasma Aβ42 level” value [3] was 331 ± 10 % of control. The “plasma Aβ42 level” value ([4]; 2.5 hours after injection) was 110 ± 8 (p = 0.232) % of pre-treatment time point, the “plasma Aβ42 level” value ([4]; 5 hours after injection) was 125 ± 8 (p = 0.049) % of pre-treatment time point and the “plasma Aβ42 level” value ([4]; 7.5 hours after injection) was 125 ± 7 (p = 0.034) % of pre-treatment time point. For the same compound, the “plasma Aβ42 level” value ([4]; 24 hours after injection) was 112 ± 13 (p = 0.341) % of pre-treatment time point and the “plasma Aβ42 level” value ([4]; 48 hours after injection) was 111 ± 10 (p = 0.256) % of pre-treatment time point.

For GM1, the “plasma Abeta load, Abeta42” value [5] was 124 ± 11 fmole/ml plasma, the “plasma Abeta load, Abeta40” value [6] was 177 ± 29 fmole/ml plasma and the “brain Abeta load, Abeta40” value [7] was 2147 ± 226 fmole/mg protein. For the same compound, the “brain Abeta40 load compared with controls (vehicle)” value [7] was 59%, the “change in Aβ levels” value [8] was “no change in Aβ levels was observed” and the “brain Abeta load, Abeta42” value [9] was 2990 ± 410 fmole/mg protein. For the same compound, the “brain Abeta42 load compared with controls (vehicle)” value [9] was 73%.

For gelsolin, the “plasma Abeta load, Abeta42” value [5] was 153 ± 35 fmole/ml plasma, the “plasma Abeta load, Abeta40” value [6] was 218 ± 87 fmole/ml plasma and the “brain Abeta load, Abeta40” value [7] was 3473 ± 673 fmole/mg protein. The “brain Abeta40 load compared with controls (vehicle)” value [7] was 96%, the “brain Abeta load, Abeta42” value [9] was 2473 ± 167 fmole/mg protein and the “brain Abeta42 load compared with controls (vehicle)” value [9] was 60%.
